The term pIC50 denotes the IC50 on a negative log10 scale, so that one unit is a factor of ten. Low readings indicate a large IC50, high ones a small IC50.

Molecules are shown by their SMILES. pIC50: −log10 of the molar value. A value given as a limit tells only on which side of the number the result lay.

In experiment [1] the test system is HCT-116. The experiment in a line: Intrinsic cytotoxic activity against wild type HCT116 cell line. In kind it is functional, cell-based. To be noted: Homo sapiens.
The test system of experiment [2] is HCT-116. As to the kind of experiment: inhibitory activity of compound against multidrug resistant HCT116/VM46 cell line treated with Vinblastine. The experiment is classed as functional, cell-based. To be noted: Homo sapiens.
For experiment [3], the system named is HCT-116. As to the kind of experiment: Intrinsic cytotoxic activity against multidrug resistant HCT116/VM46 cell line. In kind it is functional, cell-based. The conditions noted are these: Homo sapiens.
In experiment [4] the test system is HCT-116. The experiment in a line: Multi drug resistance reversal in HCT116/VM46 cell line treated with Doxorubicin. In kind it is functional, Homo sapiens.
Experiment [5] relates to HCT-116. As to the kind of experiment: inhibitory activity of compound against multidrug resistance HCT116/VM46 cell line treated with Doxorubicin. In kind it is functional, cell-based. The conditions noted are these: Homo sapiens.
Experiment [6] deals with HCT-116. As to the kind of experiment: Multi drug resistance reversal in HCT116/VM46 cell line treated with Vinblastine. In kind it is functional, Homo sapiens.
The test system of experiment [7] is HCT-116. The experiment in a line: inhibitory activity of compound against Multidrug resistant HCT116/VM46 cell line treated with Vinblastine. The experiment is classed as functional, cell-based. The conditions noted are these: Homo sapiens.
The subject of experiment [8] is HCT-116. The experiment in a line: Intrinsic cytotoxic activity against Multidrug resistant HCT116/VM46 cell line. In kind it is functional, cell-based. To be noted: Homo sapiens.
For experiment [9], the system named is HCT-116. The experiment in a line: inhibitory activity of compound against Multidrug resistance HCT116/VM46 cell line treated with Doxorubicin. The experiment is classed as functional, cell-based. The conditions noted are these: Homo sapiens.
In experiment [10] the test system is HCT-116. The experiment in a line: Multi drug resistance reversal in HCT116/VM46 cell line treated with Doxorubicin at a compound concentration 7.5 uM. The experiment is classed as functional, Homo sapiens.
In experiment [11] the test system is HCT-116. The experiment in a line: Multi drug resistance reversal in HCT116/VM46 cell line treated with Vinblastine at a compound concentration 7.5 uM. In kind it is functional, Homo sapiens.
The subject of experiment [12] is HCT-116. As to the kind of experiment: inhibitory activity of compound against Multidrug resistant HCT116/VM46 cell line treated with Doxorubicin at a compound concentration 7.5 uM. In kind it is functional, cell-based. To be noted: Homo sapiens.
In experiment [13] the test system is HCT-116. As to the kind of experiment: inhibitory activity against Multidrug resistant HCT116/VM46 cell line treated with Vinblastine at a compound concentration 7.5 uM. To be noted: Homo sapiens. In kind it is functional, cell-based.

For `COc1ccc(C2CC2NNC(=O)c2c(-c3ccc(OC)c(OC)c3)c3c4cc(OC)c(OC)cc4oc(=O)c3n2CCc2ccc(OC)c(OC)c2)cc1` (stereo not drawn), the negative logarithm of the IC50 (pIC50) in experiment [1] was under 4.00; in [2] it was 8.40; in [3], under 4.00; in experiment [5] it was 7.00. Besides, the Reversion in experiment [4] and in experiment [6] was 100% each time.
On to `COc1ccc(CCn2c(C(=O)NNCCc3cccs3)c(-c3ccc(OC)c(OC)c3)c3c4cc(OC)c(OC)cc4oc(=O)c32)cc1OC`, for which the pIC50 is under 4.00 in [1], 8.40 in [7], under 4.00 in experiment [8] and 7.00 in [9]. In addition, the Reversion in experiment [4] and in experiment [6] was 100% throughout.
For the compound `COCCN(CCOC)NC(=O)c1c(-c2ccc(OC)c(OC)c2)c2c3cc(OC)c(OC)cc3oc(=O)c2n1CCc1ccc(OC)c(OC)c1`, the pIC50 in experiment [1] is 4.60; in [7], 8.05; in experiment [8], 4.82; in experiment [9], 6.82. For the same compound, the figures for the Reversion in experiment [4] and in experiment [6] were 50% and 45%, respectively.
As to `COc1cccc(CCNNC(=O)c2c(-c3ccc(OC)c(OC)c3)c3c4cc(OC)c(OC)cc4oc(=O)c3n2CCc2ccc(OC)c(OC)c2)c1`, the pIC50 is 4.60 in experiment [1], 8.70 in experiment [7], 5.30 in experiment [8] and 7.00 in experiment [9]. Also, the Reversion was determined as 100% in experiment [4] and 200% in [6].
For `COc1ccc(CCn2c(C(=O)NN[C@@H](C)C(=O)OC(C)(C)C)c(-c3ccc(OC)c(OC)c3)c3c4cc(OC)c(OC)cc4oc(=O)c32)cc1OC`, the pIC50 is 5.15 in experiment [1], 8.10 in experiment [7], 5.40 in [8] and 6.74 in [9]. Moreover, the Reversion in experiment [4] stood at 55%; in [6], 50%.
Consider `COc1ccc(CCn2c(C(=O)NCCNC(=O)c3c(-c4ccc(OC)c(OC)c4)c4c5cc(OC)c(OC)cc5oc(=O)c4n3CCc3ccc(OC)c(OC)c3)c(-c3ccc(OC)c(OC)c3)c3c4cc(OC)c(OC)cc4oc(=O)c32)cc1OC`, for which the pIC50 in experiment [1] is under 4.00; in experiment [7], 7.30; in experiment [8] it was under 4.00; in experiment [9], 6.12. Moreover, the Reversion in experiment [4] and in [6] was 10% in each case.
`COC(=O)c1c(-c2ccc(OC)c(OC)c2)c2c3cc(OC)c(OC)cc3oc(=O)c2n1CCc1ccc(OC)c(OC)c1` gave a negative logarithm of the IC50 (pIC50) in experiment [7] of 8.70. In addition, the Reversion in experiment [6] came out at 100%.
With `COc1ccc(CCn2c(C(=O)NN3CCC4(CC3)OCCO4)c(-c3ccc(OC)c(OC)c3)c3c4cc(OC)c(OC)cc4oc(=O)c32)cc1OC`, the pIC50 is 4.82 in experiment [1], 8.22 in [7], 5.00 in experiment [8] and 7.00 in experiment [9]. Moreover, the Reversion in experiment [4] is on record as 100%; in [6], 67%.
With `COc1ccc(CCn2c(C(=O)NNCCc3c[nH]c4ccccc34)c(-c3ccc(OC)c(OC)c3)c3c4cc(OC)c(OC)cc4oc(=O)c32)cc1OC`, the pIC50 in experiment [1] was under 4.00; in experiment [7], 8.40; in experiment [8], under 4.00; in experiment [9], 7.00. Besides, the Reversion in [4] and in experiment [6] was 100% throughout.
As to `COc1ccc(CCNNC(=O)c2c(-c3ccc(OC)c(OC)c3)c3c4cc(OC)c(OC)cc4oc(=O)c3n2CCc2ccc(OC)c(OC)c2)cc1OC`, the pIC50 in [1] is 5.30; in [7] it was 8.40; in [8], 5.30; in experiment [9] it was 7.00. Besides, the Reversion in [4] and in [6] was 100% each time.
Take `COc1ccc(CNNC(=O)c2c(-c3ccc(OC)c(OC)c3)c3c4cc(OC)c(OC)cc4oc(=O)c3n2CCc2ccc(OC)c(OC)c2)cc1`: the negative logarithm of the IC50 (pIC50) was 4.40 in experiment [1], 8.40 in experiment [7], 4.52 in experiment [8] and 6.92 in experiment [9]. The Reversion in [4] is recorded as 80%; in experiment [6], 100%.
Take `COc1ccc(CCn2c(C(=O)NNC(c3ccccc3)c3ccccc3)c(-c3ccc(OC)c(OC)c3)c3c4cc(OC)c(OC)cc4oc(=O)c32)cc1OC`: the negative-log IC50 (pIC50) in [1] is 4.60; in [7] it was 8.40; in experiment [8], 4.82; in [9] it was 6.92. Moreover, the Reversion was determined as 80% in experiment [4] and 100% in experiment [6].
In the case of `COc1ccc(OC)c(CCNNC(=O)c2c(-c3ccc(OC)c(OC)c3)c3c4cc(OC)c(OC)cc4oc(=O)c3n2CCc2ccc(OC)c(OC)c2)c1`, the pIC50 in experiment [1] was 4.60; in experiment [7] it was 8.70; in [8], 5.00; in experiment [9], 7.00. Further, the Reversion in [4] is given as 100%; in experiment [6], 200%.
Consider `COc1ccc(CCn2c(C(=O)NN)c(-c3ccc(OC)c(OC)c3)c3c4cc(OC)c(OC)cc4oc(=O)c32)cc1OC`, for which the pIC50 in experiment [1] is under 4.00; in [7], 8.15; in experiment [8] it was under 4.00; in experiment [9], 6.62. Besides, the Reversion in [4] is 40%; in experiment [6], 60%.
For `COc1ccc(CCn2c(C(=O)NNCCc3ccc(O)cc3)c(-c3ccc(OC)c(OC)c3)c3c4cc(OC)c(OC)cc4oc(=O)c32)cc1OC`, the pIC50 in experiment [1] was 4.82; in experiment [7] it was 8.00; in experiment [8], 5.00; in experiment [9], 6.74. Moreover, the Reversion in experiment [4] amounted to 55%; in [6], 25%.
On to `COc1ccc(CCNNC(=O)c2c(-c3ccc(OC)c(OC)c3)c3c4cc(OC)c(OC)cc4oc(=O)c3n2CCc2ccc(OC)c(OC)c2)cc1`, for which the pIC50 in experiment [1] was 4.70; in experiment [7] it was 8.70; in experiment [8], 5.00; in experiment [9], 7.22. For the same compound, the Reversion in experiment [4] stood at 167%; in [6], 200%.
Regarding `COC(=O)[C@H](CCCNNC(=O)c1c(-c2ccc(OC)c(OC)c2)c2c3cc(OC)c(OC)cc3oc(=O)c2n1CCc1ccc(OC)c(OC)c1)NC(=O)OCc1ccccc1`, the pIC50 was 4.35 in experiment [1], 8.30 in experiment [7], 4.40 in experiment [8] and 7.00 in experiment [9]. Besides, the Reversion in experiment [4] is 100%; in experiment [6] it was 80%.
As for `COc1ccc(CCn2c(C(=O)NNCCCCCCSC(C)=O)c(-c3ccc(OC)c(OC)c3)c3c4cc(OC)c(OC)cc4oc(=O)c32)cc1OC`, the pIC50 was 4.70 in experiment [1], 8.00 in [7], 4.46 in experiment [8] and 6.70 in experiment [9]. The Reversion in experiment [4] was determined as 50%; in experiment [6], 25%.
In the case of `COc1ccc(CCn2c(C(=O)NNCCc3ccc(F)cc3)c(-c3ccc(OC)c(OC)c3)c3c4cc(OC)c(OC)cc4oc(=O)c32)cc1OC`, the pIC50 was 4.52 in experiment [1], 8.40 in experiment [7], 4.70 in experiment [8] and 7.00 in experiment [9]. Further, the Reversion in experiment [4] and in experiment [6] was 100% throughout.
As for `COc1ccc(CCn2c(C(=O)N(C)C)c(-c3ccc(OC)c(OC)c3)c3c4cc(OC)c(OC)cc4oc(=O)c32)cc1OC`, the Reversion in experiment [10] worked out at 1000%; in experiment [11] it was 1000%; in experiment [4] it was 100%; in [6] it was 100%. In addition, the pIC50 in experiment [1] is 4.60; in [7], 8.70; in experiment [8], 4.70; in experiment [12], 8.00; in [9], 7.00; in [13] it was 9.70.
Take `COc1ccc(CCn2c(C(=O)NCCCCCCNC(=O)c3c(-c4ccc(OC)c(OC)c4)c4c5cc(OC)c(OC)cc5oc(=O)c4n3CCc3ccc(OC)c(OC)c3)c(-c3ccc(OC)c(OC)c3)c3c4cc(OC)c(OC)cc4oc(=O)c32)cc1OC`: the negative-log IC50 (pIC50) is under 4.00 in [1], 7.52 in [7], under 4.00 in [8] and 6.35 in experiment [9]. Also, the Reversion in [4] was 20%; in experiment [6], 15%.
In turn, `COc1ccc(CCn2cc(-c3ccc(OC)c(OC)c3)c3c4cc(OC)c(OC)cc4oc(=O)c32)cc1OC` showed a pIC50 in experiment [7] of 8.70. The Reversion in [6] is given as 100%.
With `COc1ccc(CCN(C)CCCC(C#N)(c2ccc(OC)c(OC)c2)C(C)C)cc1OC` (stereo not drawn), the pIC50 in experiment [7] was 7.70; in experiment [9], 6.30. Also, the Reversion in experiment [4] is 20%; in experiment [6], 10%.
Turning to `CC[C@]1(O)C[C@@H]2CN(CCc3c([nH]c4ccccc34)[C@@](C(=O)OC)(c3cc4c(cc3OC)N(C)[C@H]3[C@@](O)(C(=O)OC)[C@H](OC(C)=O)[C@]5(CC)C=CCN6CC[C@]43[C@@H]65)C2)C1` [VINBLASTINE], the negative-log IC50 (pIC50) in experiment [1] is 8.40.

For the origin of these results see ChEMBL document CHEMBL1137986, “Multidrug resistance reversal activity of permethyl ningalin B amide derivatives” (Bioorg Med Chem Lett, 2004).
